# How the values were obtained:
# BsIMPDH [1] = molecular target: T1, BsIMPDH (Bacillus subtilis, UniProt P21879); experiment: biochemical
# A. gossypii IMPDH = conditions: cited from earlier work
# BsIMPDH [2] = molecular target: T1, BsIMPDH; conditions: for binding to BsIMPDH (in words): ITC, 25 °C, 25 μM BsIMPDH
# BsIMPDH [3] = molecular target: T1, BsIMPDH; experiment: biochemical; remark: listed apart in the source
# E. coli IMPDH = conditions: cited from earlier work
# BsIMPDH [4] = molecular target: T1, BsIMPDH; experiment: Mass photometry of BsIMPDH tetramer/octamer state; conditions: EC50 of BsIMPDH octamer formation, absence of substrates, 100 nM BsIMPDH
# BsIMPDH-ΔCBS [5] = conditions: 10 μM Ap4A
# BsIMPDH-ΔCBS [6] = conditions: presence of IMP and NAD+
# BsIMPDH [7] = molecular target: T1, BsIMPDH; conditions: 50 μM BsIMPDH, 5 mM ligand, 25 °C
# [8] = dinucleotide 10 μM, NAD+ constant, IMP variable
# T1 sequence (P21879 whole entry): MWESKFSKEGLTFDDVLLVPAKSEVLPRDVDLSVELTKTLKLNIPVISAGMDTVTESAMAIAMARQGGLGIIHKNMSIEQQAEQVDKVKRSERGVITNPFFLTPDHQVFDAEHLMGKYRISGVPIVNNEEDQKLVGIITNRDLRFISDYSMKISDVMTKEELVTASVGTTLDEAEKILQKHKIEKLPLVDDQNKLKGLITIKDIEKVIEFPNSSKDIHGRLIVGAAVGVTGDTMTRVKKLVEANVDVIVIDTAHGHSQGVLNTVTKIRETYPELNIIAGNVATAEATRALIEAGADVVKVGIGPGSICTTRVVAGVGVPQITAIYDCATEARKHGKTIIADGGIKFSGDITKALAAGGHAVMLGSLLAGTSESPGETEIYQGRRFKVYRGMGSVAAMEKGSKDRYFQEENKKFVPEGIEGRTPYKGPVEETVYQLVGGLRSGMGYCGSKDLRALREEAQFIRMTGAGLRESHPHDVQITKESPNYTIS
compound,measurement,setting,value
Nc1ncnc2c1ncn2[C@@H]1O[C@H](COP(=O)(O)OP(=O)(O)OP(=O)(O)OP(=O)(O)OP(=O)(O)OC[C@H]2O[C@@H](n3cnc4c(N)ncnc43)[C@H](O)[C@@H]2O)[C@@H](O)[C@H]1O [Ap5A],effect on BsIMPDH activity (in words),BsIMPDH [1]; [8],resulted in BsIMPDH inhibition
Nc1ncnc2c1ncn2[C@@H]1O[C@H](COP(=O)(O)OP(=O)(O)OP(=O)(O)OP(=O)(O)OP(=O)(O)OP(=O)(O)OC[C@H]2O[C@@H](n3cnc4c(N)ncnc43)[C@H](O)[C@@H]2O)[C@@H](O)[C@H]1O [Ap6A],effect on BsIMPDH activity (in words),BsIMPDH [1]; [8],resulted in BsIMPDH inhibition
"Nc1nc2c(ncn2[C@@H]2O[C@H](COP(=O)(O)OP(=O)(O)O)[C@@H](O)[C@H]2O)c(=O)[nH]1 [GDP, guanosine-5’-mono-, di-, triphosphate]",binding (in words),A. gossypii IMPDH,well
Nc1nc2c(ncn2[C@@H]2O[C@H](COP(=O)(O)OP(=O)(O)OP(=O)(O)OP(=O)(O)OP(=O)(O)OC[C@H]3O[C@@H](n4cnc5c(N)ncnc54)[C@H](O)[C@@H]3O)[C@@H](O)[C@H]2O)c(=O)[nH]1 [Ap5G],binding (in words),A. gossypii IMPDH,well
same,binding to BsIMPDH (in words),BsIMPDH [2],No binding
Nc1nc2c(ncn2[C@@H]2O[C@H](COP(=O)(O)OP(=O)(O)OP(=O)(O)OC[C@H]3O[C@@H](n4cnc5c(N)ncnc54)[C@H](O)[C@@H]3O)[C@@H](O)[C@H]2O)c(=O)[nH]1 [Ap3G],binding to BsIMPDH (in words),BsIMPDH [2],No binding
Nc1nc2c(ncn2[C@@H]2O[C@H](COP(=O)(O)OP(=O)(O)OP(=O)(O)OP(=O)(O)OC[C@H]3O[C@@H](n4cnc5c(N)ncnc54)[C@@H](O)C3O)[C@H](O)C2O)c(=O)[nH]1 (some centres unmarked) [Ap4G],binding to BsIMPDH (in words),BsIMPDH [2],No binding
"Nc1ncnc2c1ncn2[C@@H]1O[C@H](COP(=O)(O)OP(=O)(O)OP(=O)(O)OP(=O)(O)OC[C@H]2O[C@@H](n3cnc4c(N)ncnc43)[C@H](O)[C@@H]2O)[C@@H](O)[C@H]1O [Ap4A, diadenosine 5’,5’’’-P1,P4-tetraphosphate]",binding (in words),A. gossypii IMPDH,only with low affinity
same,Kd,BsIMPDH [3],7.4 ± 2.1 µM
same,affinity relative to ATP,E. coli IMPDH,five-fold higher affinity than ATP
same,EC50,BsIMPDH [4],90 µM
same,Ap4A-dependent regulation of enzymatic activity (in words),BsIMPDH-ΔCBS [5],insensitive to Ap4A-dependent regulation
same,difference in affinity between Ap4A and ATP,BsIMPDH [2]; from ITC Kd values,approximately 700 fold
same,Ki,BsIMPDH [1],15.8 µM
same,effect on BsIMPDH activity (in words),BsIMPDH [1]; Ap4A 1-100 μM,potently reduced BsIMPDH activity
same,Ap4A-dependent tetramer-to-octamer equilibrium (in words),BsIMPDH-ΔCBS [6],insensitive to Ap4A-dependent regulation
same,"effect on conformational flexibility of CBS domains (HDX-MS, in words)",BsIMPDH [7],restrict the conformational flexibility of the CBS domains

# Source: paper PMC10439310 (Nature microbiology, 2022)
